Data taken from patent US8476255B2, “Histone deacetylase inhibitors” (Orchid Chemicals & Pharmaceuticals Limited, priority 2007, dated 2013).

Experiments:
NCIH460 (lung) cells = assay: Anti-cancer screen (MTT), NCIH460; format: cell-based; details: Homo sapiens, NCI-H460, NCIH460, 48 hours, MTT; for GI50: read-out: Cell growth inhibition NCIH460 (Lung) GI50; for LC50: read-out: Cell growth inhibition NCIH460 (Lung) LC50; for IC (TGI): read-out: Cell growth inhibition NCIH460 (Lung) TGI
Procedure, shortened: (§1)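 5×10^4 cells/mL, DMEM + 10% FBS, 24 h attach, 37 °C/5% CO2. Cpds 0.01–100 μM (5 conc., triplicate), 48 h. MTT 3 h → DMSO → A570; T0 plate read at dosing.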

HCT 116 (colon) cells = assay: Anti-cancer screen (MTT), HCT 116; format: cell-based; details: Homo sapiens, HCT-116, HCT116, 48 hours, MTT; for GI50: read-out: Cell growth inhibition HCT116 (Colon) GI50; for CC50: read-out: Cell growth inhibition HCT116 (Colon) LC50; for IC (TGI): read-out: Cell growth inhibition HCT116 (Colon) TGI
Procedure, shortened: as §1

U251 (glioma) cells = assay: Anti-cancer screen (MTT), U251; format: cell-based; details: Homo sapiens, U-251, U251, 48 hours, MTT; for GI50: read-out: Cell growth inhibition U251 (Glioma) GI50; for LC50 (concentration giving 50% net cell kill relative to the time-zero cell count): read-out: Cell growth inhibition U251 (Glioma) LC50; for IC (TGI): read-out: Cell growth inhibition U251 (Glioma) TGI
Procedure, shortened: as §1

[1] = system: NCIH460, HCT116 and U251 cells; assay: Anti-cancer screen, mean GI50 over cell lines; format: cell-based; details: mean over cell lines; read-out: Cell growth inhibition Mean GI50
Procedure, shortened: as §1

[2] = system: HDAC (Mouse Liver Extract); assay: HDAC inhibition assay using Boc-Lys(Ac)-AMC substrate; format: biochemical; details: mouse liver enzyme
Procedure, shortened: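 Released AMC measured at 360 nm excitation, 460 nm emission after 15-30 min trypsin development at 37° C. Preceding deacetylation: mouse liver extract with acetylated-lysine AMC substrate, 30 min at 37° C after 5-min preincubation; blanks were buffer alone and substrate alone.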

Row | SMILES | GI50 (NCIH460 (lung) cells) | LC50 (NCIH460 (lung) cells) | IC (TGI) (NCIH460 (lung) cells) | GI50 (HCT 116 (colon) cells) | CC50 (HCT 116 (colon) cells) | IC (TGI) (HCT 116 (colon) cells) | GI50 (U251 (glioma) cells) | LC50 (concentration giving 50% net cell kill relative to the time-zero cell count) (U251 (glioma) cells) | IC (TGI) (U251 (glioma) cells) | GI50 [1] | HDAC inhibition % (1 μM) [2] | HDAC inhibition % (10 μM) [2] | IC50 [2]
1 | COc1ccc(/C=C(/C(=O)NCc2ccc(C(=O)NO)cc2)c2ccc(C)cc2)cc1OC [Compound 62, 4-((2-(4-Methylphenyl)-3-(3,4-dimethoxyphenyl)acrylamido)methyl)-N-hydroxybenzamide] | > 100 µM | > 100 µM | > 100 µM | 90 µM | > 100 µM | > 100 µM | > 100 µM | > 100 µM | > 100 µM | 90 µM | 83.2% | 100.0% | 
2 | COc1ccc(/C=C(/C(=O)NCc2ccc(/C=C/C(=O)NO)cc2)c2ccc(F)cc2)cc1OC [Compound 77, (1E)-N-(4-(3-(Hydroxyamino)-3-oxoprop-1-enyl)benzyl)-2-(4-fluorophenyl)-3-(3,4-dimethoxyphenyl)acrylamide] | 2 µM | > 100 µM | 70 µM | 0.5 µM | 50 µM | 6 µM | 2.6 µM | > 100 µM | 19 µM | 1.7 µM | 90.6% | 98.5% | 0.05 µM
3 | COc1ccc(/C=C(/C(=O)NCc2ccc(/C=C/C(=O)NO)cc2)c2ccccc2F)cc1OC [Compound 78, (1E)-N-(4-(3-(Hydroxyamino)-3-oxoprop-1-enyl)benzyl)-2-(2-fluorophenyl)-3-(3,4-dimethoxyphenyl)acrylamide] | 2 µM | > 100 µM | > 100 µM | 4 µM | > 100 µM | 30 µM | 1 µM | > 100 µM | 8 µM | 2.3 µM | 87.6% | 91.3% | 
4 | CSc1ccc(/C=C(/C(=O)NCCCCCCC(=O)NO)c2ccc(F)cc2)cc1 [Compound 84, 7-(2-(4-Fluorophenyl)-3-(4-methylthiophenyl)acrylamido)-N-hydroxy heptanamide] | 2.3 µM | 70 µM | 21 µM | 1.2 µM | > 100 µM | 21 µM | 4.2 µM | 95 µM | 21 µM | 2.6 µM | 90.0% | 94.3% | 0.06 µM
5 | O=C(CCCCCCNC(=O)/C(=C\c1ccccc1)c1ccccc1)NO [Compound 85, (2Z)-7-(2,3-Diphenylacrylamido)-N-hydroxy heptanamide] | 3.3 µM | 75 µM | 25 µM | 3.1 µM | > 100 µM | 23 µM | 4.8 µM | 80 µM | 27 µM | 3.7 µM | 79.3% | 95.8% | 0.38 µM
6 | CS(=O)(=O)c1ccc(/C=C(/C(=O)NCCCCCC(=O)NO)c2ccc(F)cc2)cc1 [Compound 87, 6-(2-(4-Fluorophenyl)-3-(4-methylsulfonylphenyl)acrylamido)-N-hydroxy hexanamide] | > 100 µM | > 100 µM | > 100 µM | 44 µM | > 100 µM | 88 µM | 20 µM | > 100 µM | > 100 µM | > 100 µM | 43.6% | 81.6% | 
